Our source for the IC50 values is ChEMBL document CHEMBL1131452 (J Med Chem, 1998).

The target in experiment [1] is 3',5'-cyclic-AMP phosphodiesterase 4A (Homo sapiens, UniProt P27815). In words: Evaluated in vitro for its inhibitory activity on unpurified recombinant Phosphodiesterase type 4A (PDE4A).
In experiment [2] the target is 3',5'-cyclic-AMP phosphodiesterase 4C (Homo sapiens, UniProt Q08493). Nature of the experiment: Evaluated in vitro for its inhibitory activity on unpurified recombinant Phosphodiesterase 4C.
In experiment [3] the target is 3',5'-cyclic-AMP phosphodiesterase 4D (Homo sapiens, UniProt Q08499). In words: In vitro inhibitory activity on unpurified recombinant Phosphodiesterase 4D.
Experiment [4] has as its target 3',5'-cyclic-AMP phosphodiesterase 4B (Homo sapiens, UniProt Q07343). Nature of the experiment: Inhibition of recombinant human Phosphodiesterase 4B.
For experiment [5], the species on record is Homo sapiens. In words: Evaluated in vitro for its inhibitory activity on LPS-induced TNF-Alpha release in human whole blood. It counts as functional, organism-based.
The species named for experiment [6] is Homo sapiens. In words: Evaluated in vitro for its inhibitory activity on LPS-induced TNF-Alpha release in human monocyte. The format is functional.
The target in the next experiment is Phosphodiesterase 4 (Homo sapiens, UniProt P27815+Q08499+Q07343+Q08493). Nature of the experiment: Evaluated in vitro for its inhibitory activity on human monocyte cytosol Phosphodiesterase type 4 (PDE4). The format is protein assay.

Chain of 3',5'-cyclic-AMP phosphodiesterase 4C (Q08493 whole entry): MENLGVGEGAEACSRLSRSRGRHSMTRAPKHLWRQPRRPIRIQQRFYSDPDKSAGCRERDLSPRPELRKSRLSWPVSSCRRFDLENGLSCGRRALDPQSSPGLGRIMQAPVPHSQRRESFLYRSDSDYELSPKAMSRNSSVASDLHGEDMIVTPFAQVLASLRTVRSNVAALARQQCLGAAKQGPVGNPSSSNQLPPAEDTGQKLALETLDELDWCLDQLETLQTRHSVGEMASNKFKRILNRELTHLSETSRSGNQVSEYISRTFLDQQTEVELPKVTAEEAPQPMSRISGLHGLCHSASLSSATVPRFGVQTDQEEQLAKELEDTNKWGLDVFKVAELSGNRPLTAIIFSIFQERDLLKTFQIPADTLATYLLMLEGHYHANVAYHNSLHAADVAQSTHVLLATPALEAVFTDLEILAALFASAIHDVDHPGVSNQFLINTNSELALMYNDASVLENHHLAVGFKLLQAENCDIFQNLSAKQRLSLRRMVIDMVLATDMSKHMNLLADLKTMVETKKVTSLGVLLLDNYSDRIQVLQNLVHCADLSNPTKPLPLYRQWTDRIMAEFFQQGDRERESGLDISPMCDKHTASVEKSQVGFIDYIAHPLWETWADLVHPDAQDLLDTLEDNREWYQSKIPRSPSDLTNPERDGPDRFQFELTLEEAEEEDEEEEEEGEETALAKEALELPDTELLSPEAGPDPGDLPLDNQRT
Chain of 3',5'-cyclic-AMP phosphodiesterase 4A (P27815 whole entry): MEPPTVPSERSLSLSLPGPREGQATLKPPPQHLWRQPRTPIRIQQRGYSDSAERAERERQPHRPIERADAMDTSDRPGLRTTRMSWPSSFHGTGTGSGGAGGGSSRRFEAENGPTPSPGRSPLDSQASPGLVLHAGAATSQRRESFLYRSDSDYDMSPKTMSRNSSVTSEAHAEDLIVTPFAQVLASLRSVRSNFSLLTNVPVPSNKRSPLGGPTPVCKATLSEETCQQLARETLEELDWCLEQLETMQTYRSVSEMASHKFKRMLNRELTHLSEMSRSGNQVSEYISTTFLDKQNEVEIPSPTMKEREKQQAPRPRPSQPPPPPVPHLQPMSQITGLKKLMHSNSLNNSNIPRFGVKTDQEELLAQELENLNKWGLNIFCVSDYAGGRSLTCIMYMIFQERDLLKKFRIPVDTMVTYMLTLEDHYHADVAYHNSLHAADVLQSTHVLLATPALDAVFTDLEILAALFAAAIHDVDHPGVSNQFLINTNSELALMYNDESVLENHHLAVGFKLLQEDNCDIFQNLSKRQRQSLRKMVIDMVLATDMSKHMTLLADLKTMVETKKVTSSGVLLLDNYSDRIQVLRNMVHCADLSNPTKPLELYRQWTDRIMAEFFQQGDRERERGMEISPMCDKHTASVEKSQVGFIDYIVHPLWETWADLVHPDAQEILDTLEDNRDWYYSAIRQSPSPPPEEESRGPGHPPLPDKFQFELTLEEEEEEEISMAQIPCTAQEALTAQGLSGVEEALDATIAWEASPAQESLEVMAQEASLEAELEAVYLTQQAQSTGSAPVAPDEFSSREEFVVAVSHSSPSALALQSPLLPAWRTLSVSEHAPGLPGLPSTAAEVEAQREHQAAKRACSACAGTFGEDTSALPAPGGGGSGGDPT
Chain of 3',5'-cyclic-AMP phosphodiesterase 4D (Q08499 whole entry): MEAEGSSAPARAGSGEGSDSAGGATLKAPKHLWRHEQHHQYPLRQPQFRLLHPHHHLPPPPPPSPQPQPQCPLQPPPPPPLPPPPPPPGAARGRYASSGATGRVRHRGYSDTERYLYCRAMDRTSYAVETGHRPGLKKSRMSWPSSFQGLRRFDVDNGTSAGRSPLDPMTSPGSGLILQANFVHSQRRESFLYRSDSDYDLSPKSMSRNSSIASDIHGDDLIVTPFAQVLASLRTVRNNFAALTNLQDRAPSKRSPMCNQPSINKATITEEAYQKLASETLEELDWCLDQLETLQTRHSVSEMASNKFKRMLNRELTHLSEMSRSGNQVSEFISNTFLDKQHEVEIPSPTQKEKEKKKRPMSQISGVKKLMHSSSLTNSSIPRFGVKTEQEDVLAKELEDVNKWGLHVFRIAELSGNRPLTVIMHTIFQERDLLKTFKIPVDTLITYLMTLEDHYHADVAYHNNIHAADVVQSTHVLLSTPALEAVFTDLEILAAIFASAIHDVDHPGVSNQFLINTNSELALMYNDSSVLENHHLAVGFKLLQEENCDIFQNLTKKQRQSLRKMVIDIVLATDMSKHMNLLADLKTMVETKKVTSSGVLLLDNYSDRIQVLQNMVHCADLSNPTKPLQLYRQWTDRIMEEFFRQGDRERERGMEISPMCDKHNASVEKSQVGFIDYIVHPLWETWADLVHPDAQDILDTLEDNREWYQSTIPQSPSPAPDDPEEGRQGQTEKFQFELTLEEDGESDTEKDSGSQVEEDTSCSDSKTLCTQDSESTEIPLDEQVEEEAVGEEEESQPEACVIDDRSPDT
Chain of 3',5'-cyclic-AMP phosphodiesterase 4B (Q07343 whole entry): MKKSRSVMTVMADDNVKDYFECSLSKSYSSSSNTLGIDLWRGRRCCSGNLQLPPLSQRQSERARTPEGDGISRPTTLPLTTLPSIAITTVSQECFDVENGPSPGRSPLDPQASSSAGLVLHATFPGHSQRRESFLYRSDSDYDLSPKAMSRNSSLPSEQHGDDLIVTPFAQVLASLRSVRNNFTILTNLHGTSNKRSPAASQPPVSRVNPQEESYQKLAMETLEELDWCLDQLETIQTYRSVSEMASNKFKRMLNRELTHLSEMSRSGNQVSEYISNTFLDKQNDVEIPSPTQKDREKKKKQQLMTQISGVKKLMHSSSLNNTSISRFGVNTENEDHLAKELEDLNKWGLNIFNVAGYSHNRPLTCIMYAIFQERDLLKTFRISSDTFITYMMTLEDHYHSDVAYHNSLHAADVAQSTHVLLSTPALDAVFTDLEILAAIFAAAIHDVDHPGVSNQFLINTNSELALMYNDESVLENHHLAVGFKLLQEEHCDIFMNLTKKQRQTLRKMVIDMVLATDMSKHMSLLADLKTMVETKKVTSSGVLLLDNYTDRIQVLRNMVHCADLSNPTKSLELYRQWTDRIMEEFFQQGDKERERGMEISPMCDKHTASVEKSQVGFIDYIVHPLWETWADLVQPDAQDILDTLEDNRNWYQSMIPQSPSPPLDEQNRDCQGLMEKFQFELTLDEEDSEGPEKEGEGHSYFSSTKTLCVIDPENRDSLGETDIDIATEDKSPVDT

By IC50 is commonly meant the concentration that gives 50% inhibition. With `COc1ccc(C2=NOC(C(=O)NO)C2)cc1OC1CCCC1` (configuration not stated), the IC50 in experiment [1] worked out at 2.2 nM; in experiment [2], 18 nM; in experiment [3], 2.7 nM; in experiment [4], 2.1 nM; in the experiment filed under Homo sapiens [5], 30 nM.
On to `COc1ccc(C2=NOC(C(=O)O)C2)cc1OC1CCCC1` (configuration not stated), for which the concentration for half-maximal inhibition (IC50) in the experiment listed under Homo sapiens [6] was found to be 35100 nM; against Phosphodiesterase 4 it was 2540 nM.
For the compound `COc1ccc(C(=O)NCC(=O)O)cc1OC1CCCC1`, the figures for the IC50 in the experiment listed under Homo sapiens [6] and on Phosphodiesterase 4 were over 50000 nM and 1760 nM, respectively.
Take `COc1ccc(C(=O)Nc2c(Cl)cncc2Cl)cc1OC1CCCC1`: the IC50 in the experiment listed under Homo sapiens [6] is 2 nM; in the experiment listed under Homo sapiens [5], 80 nM.
Regarding `COc1ccc(-c2cc(C(=O)NO)on2)cc1OC1CCCC1`, the concentration for half-maximal inhibition (IC50) in the experiment filed under Homo sapiens [6] came to 848 nM; against Phosphodiesterase 4 it was 1650 nM.
The matching figures for `COc1ccc(C2=NOC(C(=O)N(C)O)C2)cc1OC1CCCC1` (configuration not stated): 10200 nM and 3960 nM.
On to `COc1ccc(C(=O)NC(C)C(=O)NO)cc1OC1CCCC1` (configuration not stated), for which the IC50 in experiment [1] stood at 50.7 nM; in experiment [2], 126 nM; in experiment [3], 20.2 nM; in experiment [4], 22.2 nM; in the experiment listed under Homo sapiens [5], 50 nM.
Regarding `CCC1(C(=O)NO)CC(c2ccc(OC)c(OC3CCCC3)c2)=NO1` (configuration not stated), the IC50 was 230 nM in the experiment listed under Homo sapiens [6] and 178 nM at Phosphodiesterase 4.
Take `COc1ccc(C2=NOC(CC(=O)NO)C2)cc1OC1CCCC1` (configuration not stated): the IC50 in the experiment listed under Homo sapiens [6] worked out at 138 nM; on Phosphodiesterase 4, 221 nM.
In the same order, the values of `CCCC1(C(=O)NO)CC(c2ccc(OC)c(OC3CCCC3)c2)=NO1` (configuration not stated) are 1020 nM and 567 nM.
Regarding `COc1ccc(C2=NOC(C)(C(=O)NO)C2)cc1OC1CCCC1` (configuration not stated), the IC50 in experiment [1] came out at 9.8 nM; in experiment [2] it was 95.2 nM; in experiment [3], 10 nM; in experiment [4], 10.9 nM; in the experiment filed under Homo sapiens [5], 74 nM.
`COc1ccc(C(=O)NCC(=O)NO)cc1OC1CCCC1`: the IC50 is 32 nM in the experiment listed under Homo sapiens [6]; 249 nM on Phosphodiesterase 4; 27.2 nM in experiment [1]; 15.3 nM in experiment [2]; 15.6 nM in experiment [3]; 17.9 nM in experiment [4]. In addition, half-maximal inhibition in the experiment listed under Homo sapiens [5] (IC50) was put at 66 nM.
Regarding `COc1ccc(C2=NOC(C(N)=O)C2)cc1OC1CCCC1` (configuration not stated), the half-inhibitory concentration (IC50) in the experiment listed under Homo sapiens [6] stood at 4240 nM; on Phosphodiesterase 4, 3930 nM.
With `COc1ccc(C2CNC(=O)C2)cc1OC1CCCC1` (configuration not stated) [ROLIPRAM], the IC50 came out at 379 nM in the experiment filed under Homo sapiens [6] and 660 nM in the experiment listed under Homo sapiens [5].
